Laboratory results as given in patent publication US8877185B2, “Managing and treating keloids” (priority 2012, dated 2014).

System: keloid
Experiment: Irritation at the keloid site following application of capsaicin
Type: in vivo, human
Conditions: topical, rubbed on the keloid; Capzasin HP 0.1% capsaicin
Text: In an embodiment, a method of treating or managing a keloid includes firstly removing flurandrenolide tape (or CORDRAN® (flurandrenolide) tape) by peeling it off the keloid and secondly, cleaning the keloid with water and soap, and then drying the keloid with a cloth or a paper towel. After the keloid is dried, graphites ointment is applied in a manner that includes completely or partially covering the keloid with the graphites ointment. Graphites 6C ointment is available in the open market, for example, sold on the interne by a number of companies such as Pomade, Nelson, Boiron, or SBL. […] In an aspect of the method of treatment, witch hazel ointment is applied to the keloid evenly on the keloid either separately or together with graphites. Witch hazel (Hamamelis virginiana) is available in the open market as a cream, lotion ointment or liquid. […] The Hamamelis ointment is allowed to be absorbed by the keloid. In an embodiment, capsaicin cream or ointment is applied to the keloid. Capsaicin, 8-Methyl-N-vanillyl-trans-6-nonenamide) (CH3)2CHCH═CH(CH2)4CONHCH2C6H3-4-(OH)-3—(OCH3)) is the active composition or mixture of chili peppers, which are plants belonging to the genus Capsicum. Capsaicin may be obtained over-the-counter as for example, Capzasin HP 0.1% capsaicin (brand name CHATTEM Registered Trade mark, by Chattem Inc., TN). […]

For `COc1cc(CNC(=O)CCCC/C=C/C(C)C)ccc1O` [Capsaicin, 8-Methyl-N-vanillyl-trans-6-nonenamide], the “Period of intense irritation or pain at the site of the keloid following application” value was “about 30 minutes”.
